According to US6512000B1, “Aminocarbonyl-substituted benzimidazoles having tryptase-inhibitory activity” (Boehringer Ingelheim Pharma KG, priority 1999, dated 2003):

Target: T1, rh beta tryptase (Homo sapiens, UniProt P20231)
T1 construct: purchased Promega
Assay: Tryptase inhibition test (cleavage of N-p-tosyl-Gly-Pro-Lys-para-nitroaniline, p-nitroaniline measured at 405 nm)
Format: biochemical
Conditions: pH 7.4, 37° C.; for % Inhibition (10 μM): inhibition of rh beta tryptase at 10 μM test substance, substrate N-p-tosyl-Gly-Pro-Lys-para-nitroaniline 0.6 mM, 5 minutes; for IC50: concentration at which 50% of the tryptase enzyme activity is inhibited, substrate 0.6 mM
Protocol: The compounds according to the invention are characterised by their tryptase-inhibiting activity. This ability to inhibit tryptase was investigated using the test described below.
The measurement is carried out in Tris HCl buffer (100 mM), which additionally contains calcium (5 mM) and heparin ([…]), at pH 7.4. The standard used is rh beta tryptase which may be obtained commercially from Promega, for example. The substrate used is N-p-tosyl-Gly-Pro-Lys-para-nitroaniline in a concentration of 0.6 mM. The substrate is digested with tryptase to form p-nitroaniline which can be measured at 405 nm. Usually, an incubation period of 5 minutes and an incubation temperature of 37° C. are chosen. The enzyme activity used is 0.91 U/ml. The measurements are carried out in an Autoanalyser (Cobas Bio) made by Hofmann LaRoche. The potential inhibitory substances are used in concentrations of 10 μM in the screening, the inhibition of the tryptase being given in percent. The IC50 is determined at over 70% inhibition (concentration at which 50% of the enzyme activity is inhibited). After 5 minutes' pre-incubation of the potential inhibitory substances, the substrate is added to start the reaction, the formation of p-nitroaniline being taken as a measurement of the enzyme activity after 5 minutes, after testing the linearity.
The data obtained after the above test has been carried out (% inhibition) are assembled in Table 25 for the compounds according to the invention. The IC50 values obtained for the compounds according to the invention can be found in Table 26.
Table 26 contains the IC50 binding values obtained for the compounds according to the invention. These were measured as described above.

T1 sequence (P20231 31-275): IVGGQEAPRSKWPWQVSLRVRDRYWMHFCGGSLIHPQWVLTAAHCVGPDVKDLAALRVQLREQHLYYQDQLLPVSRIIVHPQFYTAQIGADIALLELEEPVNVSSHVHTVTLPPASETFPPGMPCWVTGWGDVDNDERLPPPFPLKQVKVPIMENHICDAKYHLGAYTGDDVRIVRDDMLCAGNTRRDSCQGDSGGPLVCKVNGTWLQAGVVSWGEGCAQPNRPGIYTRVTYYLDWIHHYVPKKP

% Inhibition (10 μM)	IC50	Substance
51%		2-[2-(4-amidinophenyl)ethyl]-1-(2 thiophenyl-methyl)-benzimidazol-5-yl-carboxylic acid-N-[4-(amino-methyl)-benzyl]-N-(3-pyridyl)-amide [Example 147]
52%		2-[2-(4-amidinophenyl)ethyl]-1-(2-cyclohexylethyl)-benzimidazol-5-yl-carboxylic acid-N-[4-(amino-methyl)-benzyl]-N-(2-pyridyl)-amide [Example 121]
52%		2-[2-(4-amidinophenyl)ethyl]-1-(2-cyclohexylethyl)-benzimidazol-5-yl-carboxylic acid-N-[4-(amino-methyl)-benzyl]-N-(3-pyridyl)-amide [Example 137]
60%		2-[2-(4-amidinophenyl)ethyl]-1-(2-phenylethyl)-benzimidazol-5-yl-carboxylic acid-N-[4-(amino-methyl)-benzyl]-N-(2-pyridyl)-amide [Example 123]
76%		2-[2-(4-amidinophenyl)ethyl]-1-(2-phenylethyl)-benzimidazol-5-yl-carboxylic acid-N-[4-(amino-methyl)-benzyl]-N-(3-pyridyl)-amide [Example 139]
59%		2-[2-(4-amidinophenyl)ethyl]-1-(2-thiophenyl-methyl)-benzimidazol-5-yl-carboxylic acid-N-(2-aminoethyl)-N-(2-pyridyl)-amide [Example 323]
57%		2-[2-(4-amidinophenyl)ethyl]-1-(3-di-n-butylaminopropyl)-benzimidazol-5-yl-carboxylic acid-N-[4-(amino-methyl)-benzyl]-N-(2-pyridyl)-amide [Example 119]
64%		2-[2-(4-amidinophenyl)ethyl]-1-(3-di-n-butylaminopropyl)-benzimidazol-5-yl-carboxylic acid-N-[4-(amino-methyl)-benzyl]-N-(3-pyridyl)-amide [Example 135]
51%	288 nM	2-[2-(4-amidinophenyl)ethyl]-1-(3-ethoxypropyl)-benzimidazol-5-yl-carboxylic acid-N-(2-aminoethyl)-N-(3-pyridyl)-amide [Example 326]
71%	304 nM	2-[2-(4-amidinophenyl)ethyl]-1-(3-ethoxypropyl)-benzimidazol-5-yl-carboxylic acid-N-[4-(amino-methyl)-benzyl]-N-(2-pyridyl)-amide [Example 118]
69%	231 nM	2-[2-(4-amidinophenyl)ethyl]-1-(3-ethoxypropyl)-benzimidazol-5-yl-carboxylic acid-N-[4-(amino-methyl)-benzyl]-N-(3-pyridyl)-amide [Example 134]
63%		2-[2-(4-amidinophenyl)ethyl]-1-(4-methylbenzyl)-benzimidazol-5-yl-carboxylic acid-N-[4-(amino-methyl)-benzyl]-N-(2-pyridyl)-amide [Example 125]
55%		2-[2-(4-amidinophenyl)ethyl]-1-[2-(4-chlorophenyl)ethyl]-benzimidazol-5-yl-carboxylic acid-N-[4-(amino-methyl)-benzyl]-N-(2-pyridyl)-amide [Example 124]

Substance	% Inhibition (10 μM)	IC50
2-[2-(4-amidinophenyl)ethyl]-1-(tetrahydrofuran-2-yl-methyl)-benzimidazol-5-yl-carboxylic acid-N-(2-aminoethyl)-N-(2-pyridyl)-amide [Example 322]	51%	
2-[2-(4-amidinophenyl)ethyl]-1-(tetrahydrofuran-2-yl-methyl)-benzimidazol-5-yl-carboxylic acid-N-[4-(amino-methyl)-benzyl]-N-(2-pyridyl)-amide [Example 130]	77%	
2-[2-(4-amidinophenyl)ethyl]-1-(tetrahydrofuran-2-yl-methyl)-benzimidazol-5-yl-carboxylic acid-N-[4-(amino-methyl)-benzyl]-N-(3-pyridyl)-amide [Example 146]	65%	
